The species named for data set [1] is Mus musculus. Description: Toxicity in mouse at 2.5 mM. As to conditions: in vivo, 2500 µM. In kind it is organism-based.
Data set [2] concerns Mus musculus. Put plainly: Antibotulinum activity against botulinum neurotoxin serotype A-induced toxicity in iv dosed mouse after 48 hrs. In kind it is functional, organism-based.
For data set [3], the system named is Mus musculus. Description: Antibotulinum activity against botulinum neurotoxin serotype A-induced toxicity in iv dosed mouse assessed as time to death. The format is functional.

Each structure is given as a SMILES string. Active and inactive are the calls of the source. The rule behind the calls is not given here.

Consider `CC(=O)OC1C(=O)CC(C)(C)C23OC2CC(c2ccccc2)C13C` (racemic), for which the Activity entry in the data set listed under Mus musculus [1] is listed as “Non-toxic”. Besides, the outcome with Mus musculus [2] was inactive.
Regarding `CC(=O)O[C@@H]1C[C@H](O)[C@@]23CO[C@@H](O)[C@]1(C)[C@@H]2C[C@@H](O)[C@]1(C)[C@@H]3C(=O)[C@H](OC(C)=O)[C@@]2(C)[C@H](c3ccoc3)C[C@H]3O[C@]321` [TOOSENDANIN], the Activity in the data set with Mus musculus [3] worked out at 7.1 h.

Source of the values: ChEMBL document CHEMBL1143365, “Function-oriented synthesis applied to the anti-botulinum natural product toosendanin” (Bioorg Med Chem, 2009).
